Measurements published in patent US20140228349A1, “5,7-SUBSTITUTED-IMIDAZO[1,2-C]PYRIMIDINES” (Array BioPharma Inc., priority 2011, published 2014).

Columns and labels:
Assay type in all cases: biochemical
Human Tyk2 kinase domain = molecular target: T1, Human Tyk2 kinase domain (Homo sapiens, UniProt P29597); assay: Tyk2 Inhibition Assay (Omnia kinase fluorescence peptide substrate); details: averaged IC50 ranges; 10 μM (Km app) or 1 mM ATP, 2 nM Tyk2
T1 construct: comprising amino acids 886 to 1187; His10 (10 histidine residues) (C, cleaved yes); made in house
T1 sequence (P29597 886-1187): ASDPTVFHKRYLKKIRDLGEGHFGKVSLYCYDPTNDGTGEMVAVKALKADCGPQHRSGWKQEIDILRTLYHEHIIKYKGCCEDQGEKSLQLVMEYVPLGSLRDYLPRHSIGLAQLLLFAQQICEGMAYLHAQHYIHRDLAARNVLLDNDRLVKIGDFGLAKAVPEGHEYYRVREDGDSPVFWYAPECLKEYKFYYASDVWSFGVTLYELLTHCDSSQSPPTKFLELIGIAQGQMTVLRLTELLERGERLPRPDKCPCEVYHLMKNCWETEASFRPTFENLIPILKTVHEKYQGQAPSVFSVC
In short: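 Phosphorylation of 8 μM Omnia Y12 peptide followed kinetically by Sox fluorescence, ex 360/em 485 nm, every 50 s for 45 min. Enzyme: 2 nM Tyk2 kinase domain (aa 886–1187, His tag removed); ATP at 10 μM (Km app) or 1 mM; buffer HEPES pH 7.4 with MgCl2, Triton X-100, DTT. 10-point curves up to 10 μM, IC50 from 4-parameter logistic fit.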

JAK1 = molecular target: T2, JAK1 (Homo sapiens, UniProt P23458); assay: JAK1 Inhibition Assay (Omnia kinase fluorescence peptide substrate); details: averaged IC50 ranges; 40 μM (Km app) or 1 mM ATP, 15 nM JAK1
T2 construct: purchased Invitrogen Corporation, Carlsbad, Calif; IVGN PV4775
T2 sequence (P23458 whole entry): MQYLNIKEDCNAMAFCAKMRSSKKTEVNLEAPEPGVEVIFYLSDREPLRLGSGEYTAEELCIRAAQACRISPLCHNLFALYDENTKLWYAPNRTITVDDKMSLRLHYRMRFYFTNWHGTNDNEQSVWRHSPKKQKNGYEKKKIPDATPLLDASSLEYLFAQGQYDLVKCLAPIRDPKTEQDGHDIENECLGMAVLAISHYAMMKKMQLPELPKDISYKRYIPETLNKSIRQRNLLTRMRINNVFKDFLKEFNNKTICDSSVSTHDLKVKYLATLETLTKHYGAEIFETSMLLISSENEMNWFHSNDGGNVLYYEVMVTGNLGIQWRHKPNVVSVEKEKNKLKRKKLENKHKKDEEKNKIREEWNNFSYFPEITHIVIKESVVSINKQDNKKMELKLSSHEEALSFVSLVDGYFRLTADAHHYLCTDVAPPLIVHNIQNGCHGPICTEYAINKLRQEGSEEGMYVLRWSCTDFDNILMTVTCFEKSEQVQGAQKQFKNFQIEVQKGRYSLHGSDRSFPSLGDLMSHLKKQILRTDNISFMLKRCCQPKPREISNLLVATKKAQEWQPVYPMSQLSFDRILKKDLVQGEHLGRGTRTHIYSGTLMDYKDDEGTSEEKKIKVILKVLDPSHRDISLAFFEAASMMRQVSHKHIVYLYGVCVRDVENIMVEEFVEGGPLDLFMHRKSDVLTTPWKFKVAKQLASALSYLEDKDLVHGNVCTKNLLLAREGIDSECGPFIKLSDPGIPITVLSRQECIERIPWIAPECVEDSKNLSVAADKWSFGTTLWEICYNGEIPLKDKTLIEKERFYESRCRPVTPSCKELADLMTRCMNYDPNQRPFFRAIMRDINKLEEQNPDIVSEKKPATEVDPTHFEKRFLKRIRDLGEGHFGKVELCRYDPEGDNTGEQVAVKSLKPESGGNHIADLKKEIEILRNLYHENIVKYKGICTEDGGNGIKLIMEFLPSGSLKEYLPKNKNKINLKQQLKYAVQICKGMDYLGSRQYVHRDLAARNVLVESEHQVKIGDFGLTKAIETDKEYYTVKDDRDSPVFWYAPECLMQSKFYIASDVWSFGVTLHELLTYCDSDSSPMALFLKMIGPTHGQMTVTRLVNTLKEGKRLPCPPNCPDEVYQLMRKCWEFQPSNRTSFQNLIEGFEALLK
In short: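 15 nM JAK1, 8 μM Omnia Y12 peptide, 40 μM (Km app) or 1 mM ATP; 25 mM HEPES pH 7.4, 10 mM MgCl2, 2% DMSO. Fluorescence (ex 360/em 485 nm) read every 50 s over 45 min. IC50 by 4-parameter fit of percent of control, top dose 10 μM.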

JAK2 = molecular target: T3, JAK2 (Homo sapiens, UniProt O60674); assay: JAK2 Inhibition Assay (Omnia kinase fluorescence peptide substrate); details: averaged IC50 ranges; 25 μM (Km app) or 1 mM ATP, 5 nM JAK2
T3 construct: purchased Invitrogen Corporation, Carlsbad, Calif; IVGN PV4288
T3 sequence (O60674 whole entry): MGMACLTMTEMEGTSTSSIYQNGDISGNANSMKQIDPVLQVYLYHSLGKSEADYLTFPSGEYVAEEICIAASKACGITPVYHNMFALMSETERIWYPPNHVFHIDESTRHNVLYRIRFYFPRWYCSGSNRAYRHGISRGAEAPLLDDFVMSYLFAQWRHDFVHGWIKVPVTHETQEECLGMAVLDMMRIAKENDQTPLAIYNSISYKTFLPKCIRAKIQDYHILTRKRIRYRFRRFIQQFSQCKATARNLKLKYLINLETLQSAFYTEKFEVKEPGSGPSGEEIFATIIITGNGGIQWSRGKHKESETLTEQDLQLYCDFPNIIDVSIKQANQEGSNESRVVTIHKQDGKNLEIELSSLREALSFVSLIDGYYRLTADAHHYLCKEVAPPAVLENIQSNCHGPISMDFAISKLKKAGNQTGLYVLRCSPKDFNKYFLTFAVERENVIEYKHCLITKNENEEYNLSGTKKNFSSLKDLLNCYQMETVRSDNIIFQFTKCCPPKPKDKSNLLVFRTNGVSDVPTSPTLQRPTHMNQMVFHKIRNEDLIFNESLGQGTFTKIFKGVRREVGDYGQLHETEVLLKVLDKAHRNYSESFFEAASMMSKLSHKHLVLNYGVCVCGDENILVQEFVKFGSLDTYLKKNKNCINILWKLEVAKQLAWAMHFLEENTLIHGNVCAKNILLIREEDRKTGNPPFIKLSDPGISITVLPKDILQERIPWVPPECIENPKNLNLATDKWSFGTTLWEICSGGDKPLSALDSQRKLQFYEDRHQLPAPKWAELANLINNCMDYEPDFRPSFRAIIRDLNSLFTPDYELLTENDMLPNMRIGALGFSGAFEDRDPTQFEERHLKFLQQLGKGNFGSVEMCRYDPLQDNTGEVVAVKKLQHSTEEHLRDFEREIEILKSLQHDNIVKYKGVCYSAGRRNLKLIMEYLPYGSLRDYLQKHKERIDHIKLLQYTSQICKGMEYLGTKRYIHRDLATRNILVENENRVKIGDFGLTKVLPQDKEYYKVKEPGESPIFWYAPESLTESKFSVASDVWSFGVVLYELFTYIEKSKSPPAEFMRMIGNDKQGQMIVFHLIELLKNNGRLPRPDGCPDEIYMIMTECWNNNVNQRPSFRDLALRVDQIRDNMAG

JAK3 = molecular target: T4, JAK3 (Homo sapiens, UniProt P52333); assay: JAK3 Inhibition Assay (Omnia kinase fluorescence peptide substrate); details: averaged IC50 ranges; 10 μM (Km app) or 1 mM ATP, 2.5 nM JAK3
T4 construct: purchased Invitrogen Corporation, Carlsbad, Calif; IVGN PV4080
T4 sequence (P52333 1-1124): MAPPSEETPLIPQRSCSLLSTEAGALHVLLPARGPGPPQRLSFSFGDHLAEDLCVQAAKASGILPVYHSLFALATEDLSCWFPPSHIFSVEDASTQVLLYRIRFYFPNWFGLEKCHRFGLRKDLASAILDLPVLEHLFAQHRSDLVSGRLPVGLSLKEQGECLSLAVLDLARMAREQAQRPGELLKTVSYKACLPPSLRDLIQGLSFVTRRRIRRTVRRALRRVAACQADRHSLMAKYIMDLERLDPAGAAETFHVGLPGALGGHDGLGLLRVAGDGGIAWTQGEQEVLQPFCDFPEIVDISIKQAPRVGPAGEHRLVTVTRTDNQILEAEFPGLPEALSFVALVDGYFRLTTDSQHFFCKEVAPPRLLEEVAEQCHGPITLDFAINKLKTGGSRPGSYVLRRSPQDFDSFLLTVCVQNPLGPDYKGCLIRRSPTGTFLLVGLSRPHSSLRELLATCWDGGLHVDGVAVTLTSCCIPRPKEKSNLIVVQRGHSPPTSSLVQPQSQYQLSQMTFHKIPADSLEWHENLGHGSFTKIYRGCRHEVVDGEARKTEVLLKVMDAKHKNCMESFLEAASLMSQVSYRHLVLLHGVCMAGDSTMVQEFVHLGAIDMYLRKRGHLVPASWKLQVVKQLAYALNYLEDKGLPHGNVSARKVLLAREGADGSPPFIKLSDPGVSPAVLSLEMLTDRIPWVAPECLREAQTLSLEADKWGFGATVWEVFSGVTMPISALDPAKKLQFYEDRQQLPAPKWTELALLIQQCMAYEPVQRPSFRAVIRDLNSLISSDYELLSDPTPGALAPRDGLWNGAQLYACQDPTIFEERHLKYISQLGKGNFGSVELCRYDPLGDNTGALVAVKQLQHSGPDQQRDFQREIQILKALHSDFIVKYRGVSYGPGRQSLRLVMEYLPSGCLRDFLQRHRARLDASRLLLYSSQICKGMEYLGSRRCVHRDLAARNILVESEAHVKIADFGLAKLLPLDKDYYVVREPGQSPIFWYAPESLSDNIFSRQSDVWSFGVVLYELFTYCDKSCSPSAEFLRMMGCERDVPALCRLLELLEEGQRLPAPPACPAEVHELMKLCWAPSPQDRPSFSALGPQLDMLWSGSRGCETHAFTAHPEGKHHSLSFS
In short: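 IC50 is the concentration giving 50 percent of control on a 4-parameter logistic fit of 10-point, 3-fold dilutions from a 10 μM top dose, at 2% final DMSO. Kinetic Sox fluorescence (360/485 nm) was monitored every 50 s for 45 min. Mix: JAK3 2.5 nM, Omnia Y7 peptide 10 μM, ATP 10 μM (Km app) or 1 mM, in HEPES pH 7.4 buffer with MgCl2, Triton X-100 and DTT.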

[1] = test system: Tyk2, JAK1, JAK2 and JAK3; assay: in vitro assays (Examples A, B, C and D) taken together; details: Reference Examples; statement in words
Source text: The assays described in Examples A, B, C and D for the determination of Tyk2, JAK1, JAK2 and JAK3 kinase activity, respectively, utilized the Omnia® Kinase fluorescence peptide substrate-based technology (Invitrogen). The specific components of the assay mixture are described in Examples A, B, C and D. In these assays, Mg^2+ is chelated upon phosphorylation of the Omnia peptide by the kinase to form a bridge between the chelation-enhanced fluorophore Sox and the phosphate, resulting in an increase in fluorescence emission at 485 nm when excited at […]. The reactions were therefore read at excitation 360 nm and emission was measured at 485 nm every 50 seconds for 45 minutes using a PerkinElmer EnVision Multilabel Plate Reader.
The final buffer conditions for Tyk2, JAK1, JAK2, and JAK3 assays were as follows: 25 mM HEPES, pH 7.4, 10 mM MgCl2, 0.01% Triton X-100 and 1 mM DTT.
Compounds were prepared at 50× the final concentration in DMSO by conducting 3-fold serial dilutions from a 500-μM intermediate dilution to give a 10-point dosing curve having a high dose of 10 μM. Two-μL aliquots of these were transferred to a fresh plate for a ten-fold intermediate dilution with assay buffer. Five-μL aliquots of the diluted compounds were then transferred to 20-μL of assay mixtures described in Examples A, B, C and D for a final concentration of DMSO of 2%. A standard or reference compound was typically included on each assay plate to validate that plate. For each plate, percent of control (POC) values were calculated for each well according to the following equation: […]
Compounds of Formula I were screened for their ability to inhibit Tyk2 using the general enzyme inhibition assay method, in which the assay mixture contained 10 μM (Km app) or 1 mM ATP, 8 μM Omnia® Y12 peptide (Catalog #IVGN KPZ3121C; Invitrogen Corporation, Carlsbad, Calif.) and 2 nM Tyk2 in a total volume of 20 μL. Human Tyk2 kinase domain, comprising amino acids 886 to 1187 with 10 additional histidine residues (histidine tag) on the carboxy terminus, was expressed and purified from bacculovirus in-house at Array BioPharma Inc. (Boulder, Colo.). The histidine tag was cleaved after purification using standard conditions.
Compounds of Formula I were screened for their ability to inhibit JAK1 using the general enzyme inhibition assay method, in which the assay mixture contained 40 μM (Km app) or 1 mM ATP, 8 μM Omnia® Y12 peptide (Catalog #IVGN KPZ3121C; Invitrogen Corporation, Carlsbad, Calif.) and 15 nM JAK1 in a total volume of 20 μL. JAK1 was purchased from Invitrogen Corporation, Carlsbad, Calif. (catalog #IVGN PV4775).
(§1) Compounds of Formula I were screened for their ability to inhibit JAK2 using the general enzyme inhibition assay method, in which the assay mixture contained 25 μM (Km app) or 1 mM ATP, 10 μM Omnia® Y7 peptide (Catalog #IVGN KNZ3071C, Invitrogen Corporation, Carlsbad, Calif.) and 5 nM JAK2 in a total volume of 20 μL. JAK2 was purchased from Invitrogen Corporation, Carlsbad, Calif. (catalog #IVGN PV4288).
as §1, with “JAK3” for “JAK2”, “10” for “25”, “2.5” for “5”, “PV4080).” for “PV4288).”

Structure (SMILES)	IC50 (Human Tyk2 kinase domain)	IC50 (JAK1)	IC50 (JAK2)	IC50 (JAK3)	activity in the in vitro assays [1]
COCCC(C1CCOC1)n1cc(-c2nc(-c3cnn(C)c3)cc3nccn23)cn1 (stereo not drawn) [Example 75, 5-(1-(3-methoxy-1-(tetrahydrofuran-3-yl)propyl)-1H-pyrazol-4-yl)-7-(1-methyl-1H-pyrazol-4-yl)imidazo[1,2-c]pyrimidine]	> 1000 nM	> 1000 nM	> 1000 nM	> 1000 nM	weakly active
CCN1CC(CCF)(n2cc(-c3nc(-c4cnn(C)c4)cc4nccn34)cn2)C1 [Example 84, 5-(1-(1-ethyl-3-(2-fluoroethyl)azetidin-3-yl)-1H-pyrazol-4-yl)-7-(1-methyl-1H-pyrazol-4-yl)imidazo[1,2-c]pyrimidine]	> 1000 nM	> 1000 nM	> 1000 nM	> 1000 nM	weakly active
CCNC(=O)N1CC(CCF)(n2cc(-c3nc(-c4cnn(C)c4)cc4nccn34)cn2)C1 [Example 92, N-ethyl-3-(2-fluoroethyl)-3-(4-(7-(1-methyl-1H-pyrazol-4-yl)imidazo[1,2-c]pyrimidin-5-yl)-1H-pyrazol-1-yl)azetidine-1-carboxamide]	> 1000 nM	> 1000 nM	> 1000 nM	> 1000 nM	weakly active
Cn1cc(-c2cc3nccn3c(-c3cnn(C4(CC(C)(C)O)CN(S(=O)(=O)C(F)(F)F)C4)c3)n2)cn1 [Example 94, 2-methyl-1-(3-(4-(7-(1-methyl-1H-pyrazol-4-yl)imidazo[1,2-c]pyrimidin-5-yl)-1H-pyrazol-1-yl)-1-((trifluoromethyl)sulfonyl)azetidin-3-yl)propan-2-ol]	100 to 1000 nM	100 to 1000 nM	100 to 1000 nM	> 1000 nM	
CC(C)S(=O)(=O)N1CC(CCF)(n2cc(-c3nc(-c4cnn(C)c4)cc4nccn34)cn2)C1 [Example 95, 5-(1-(3-(2-fluoroethyl)-1-(isopropylsulfonyl)azetidin-3-yl)-1H-pyrazol-4-yl)-7-(1-methyl-1H-pyrazol-4-yl)imidazo[1,2-c]pyrimidine]	100 to 1000 nM	> 1000 nM	100 to 1000 nM	> 1000 nM	
CC(=O)N1CC(CCF)(n2cc(-c3nc(-c4cnn(C)c4)cc4nccn34)cn2)C1 [Example 96, 1-(3-(2-fluoroethyl)-3-(4-(7-(1-methyl-1H-pyrazol-4-yl)imidazo[1,2-c]pyrimidin-5-yl)-1H-pyrazol-1-yl)azetidin-1-yl)ethanone]	> 1000 nM	> 1000 nM	> 1000 nM	> 1000 nM	
COCCC1(n2cc(-c3nc(-c4cnn(C)c4)cc4nccn34)cn2)CN(S(=O)(=O)C(F)(F)F)C1 [Example 100, 5-(1-(3-(2-methoxyethyl)-1-((trifluoromethyl)sulfonyl)azetidin-3-yl)-1H-pyrazol-4-yl)-7-(1-methyl-1H-pyrazol-4-yl)imidazo[1,2-c]pyrimidine]	< 10 nM	10 to 100 nM	10 to 100 nM	100 to 1000 nM	
Cn1cc(-c2cc3nccn3c(-c3ccn([C@@H](C[C@@H](O)C(F)(F)F)C4CC4)c3)n2)cn1 [Example 101, (2R,4S)-4-cyclopropyl-1,1,1-trifluoro-4-(3-(7-(1-methyl-1H-pyrazol-4-yl)imidazo[1,2-c]pyrimidin-5-yl)-1H-pyrrol-1-yl)butan-2-ol]	100 to 1000 nM	100 to 1000 nM	100 to 1000 nM	100 to 1000 nM	
Cn1cc(-c2cc3nccn3c(-c3ccn([C@@H](C[C@H](O)C(F)(F)F)C4CC4)c3)n2)cn1 [Example 102, (2S,4S)-4-cyclopropyl-1,1,1-trifluoro-4-(3-(7-(1-methyl-1H-pyrazol-4-yl)imidazo[1,2-c]pyrimidin-5-yl)-1H-pyrrol-1-yl)butan-2-ol]	10 to 100 nM	100 to 1000 nM	100 to 1000 nM	> 1000 nM	
